The values below come from paper PMC3694096, “Development of Novel In Vivo Chemical Probes to Address CNS Protein Kinase Involvement in Synaptic Dysfunction” (PLoS ONE, 2013).

Read-outs that look alike come from different tables or passages of the source.

In general, Ki refers to a measure of affinity in units of concentration, obtained from inhibition or displacement. High values mean lower affinity, low ones higher affinity. A word on the pKa: it is the pH at which an ionisable group is half protonated.

The target of data set [1] is T1, PI3 Kinase (p110α (H1047R)/p85α) (Homo sapiens, UniProt P42336, H1047R).
T1 construct: purchased Millipore KinaseProfiler
The experiment in a line: Kinome profiler screen. The format is biochemical. The conditions noted are these: at 20,000 nM inhibitor; kinase activity remaining.

Another data set addresses JNK1α1 (Homo sapiens, UniProt P45983). The experiment in a line: biochemical.
The target of a further data set is T2, PI3 kinase (p110α/p65α) (Homo sapiens, UniProt P42336).
T2 construct: purchased Millipore KinaseProfiler
The experiment in a line: Kinome profiler screen. As to conditions: at 20,000 nM inhibitor; kinase activity remaining. The format is biochemical.

The test system of data set [2] is PI3 Kinase (p110α (H1047R)/p85α). The experiment in a line: Kinome profiler screen. The format is biochemical. The conditions noted are these: at 20,000 nM inhibitor; kinase activity remaining.
A further data set deals with T3, PI3 Kinase (p110α/p85α) (Homo sapiens, UniProt P42336).
T3 construct: purchased Millipore KinaseProfiler
The experiment in a line: Kinome profiler screen. As to conditions: at 20,000 nM inhibitor; kinase activity remaining. Type of data set: biochemical.

In the next data set the target is T4, SAPK4 (SAPK=p38MAPK) (Homo sapiens, UniProt O15264).
T4 construct: purchased Millipore KinaseProfiler
The experiment in a line: Kinome profiler screen. Type of data set: biochemical. The conditions noted are these: at 20,000 nM inhibitor; kinase activity remaining.

Data set [3] deals with T5, PI3 Kinase (p110α (E542K)/p85α) (Homo sapiens, UniProt P42336, E542K).
T5 construct: purchased Millipore KinaseProfiler
The experiment in a line: Kinome profiler screen. The format is biochemical. As to conditions: at 20,000 nM inhibitor; kinase activity remaining.

The next data set concerns the target T6, MRCKβ (Homo sapiens, UniProt Q9Y5S2).
T6 construct: purchased Millipore KinaseProfiler
The experiment in a line: Kinome profiler screen. The conditions noted are these: at 20,000 nM inhibitor; kinase activity remaining. The format is biochemical.

A further data set has as its system MLCK. The experiment in a line: Kinome profiler screen. The format is biochemical. The conditions noted are these: at 20,000 nM inhibitor; kinase activity remaining.
The target in data set [4] is T7, PI3 Kinase (p110α (E545K)/p85α) (Homo sapiens, UniProt P42336, E545K).
T7 construct: purchased Millipore KinaseProfiler
The experiment in a line: Kinome profiler screen. The format is biochemical. As to conditions: at 20,000 nM inhibitor; kinase activity remaining.

For a further data set, the target named is T8, Blk (Homo sapiens, UniProt P51451).
T8 construct: purchased Millipore KinaseProfiler
The experiment in a line: Kinome profiler screen. As to conditions: at 20,000 nM inhibitor; kinase activity remaining. Type of data set: biochemical.

Data set [5] deals with primary microglia from wild-type (WT) mice. The experiment in a line: LPS-induced IL-1β in primary microglia, wild-type. Type of data set: cell-based, C57Bl/6 mice. The conditions noted are these: LPS 3 ng/ml, 24 hrs.
A further data set concerns the target JNK2α2 (Homo sapiens, UniProt P45984). The experiment in a line: biochemical.
In another data set the target is T9, Aurora-C (Homo sapiens, UniProt Q9UQB9).
T9 construct: purchased Millipore KinaseProfiler
The experiment in a line: Kinome profiler screen. The format is biochemical. The conditions noted are these: at 20,000 nM inhibitor; kinase activity remaining.

For data set [6], the target named is T5, PI3 Kinase (p110α (E542K)/p85α). The experiment in a line: Kinome profiler screen. Type of data set: biochemical. As to conditions: at 20,000 nM inhibitor; kinase activity remaining. The source holds these as a separate data set.
Data set [7] deals with phospho-MK-2 (p38αMAPK substrate) in BV-2 cells. The experiment in a line: LPS-induced phosphorylation of MK-2 in BV-2 cells. Type of data set: cell-based, murine. The conditions noted are these: LPS-stimulated BV-2 cells, 60 min.
The target in a further data set is T10, SAPK3 (SAPK=p38MAPK) (Homo sapiens, UniProt P53778).
T10 construct: purchased Millipore KinaseProfiler
The experiment in a line: Kinome profiler screen. The format is biochemical. As to conditions: at 20,000 nM inhibitor; kinase activity remaining.

The next data set has as its system panel of 158 GPCRs. The experiment in a line: Functional GPCR agonist and antagonist screen (calcium flux FLIPR). As to conditions: outcome in words. Type of data set: cell-based.
The target of another data set is T11, NLK (Homo sapiens, UniProt Q9UBE8).
T11 sequence (Q9UBE8 1-527): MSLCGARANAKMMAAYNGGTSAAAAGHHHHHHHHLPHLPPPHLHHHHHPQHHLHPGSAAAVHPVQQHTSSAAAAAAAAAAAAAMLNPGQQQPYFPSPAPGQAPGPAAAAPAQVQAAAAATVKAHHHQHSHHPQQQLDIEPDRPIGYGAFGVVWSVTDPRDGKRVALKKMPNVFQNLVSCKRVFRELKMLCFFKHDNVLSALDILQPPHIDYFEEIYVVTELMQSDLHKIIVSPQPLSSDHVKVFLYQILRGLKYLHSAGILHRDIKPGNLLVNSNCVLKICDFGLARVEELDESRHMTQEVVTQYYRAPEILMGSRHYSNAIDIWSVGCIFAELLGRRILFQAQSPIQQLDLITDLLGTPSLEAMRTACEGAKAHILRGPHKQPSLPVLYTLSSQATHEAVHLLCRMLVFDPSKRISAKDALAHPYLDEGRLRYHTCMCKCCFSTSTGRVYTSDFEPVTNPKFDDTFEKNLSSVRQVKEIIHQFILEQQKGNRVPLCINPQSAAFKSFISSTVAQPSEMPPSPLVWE
The experiment in a line: Kinetic analysis, Ki. Type of data set: biochemical. Further details: purchased Millipore.

The target of the next data set is T12, SAPK2b (SAPK=p38MAPK) (Homo sapiens, UniProt Q15759).
T12 construct: purchased Millipore
The experiment in a line: Kinome profiler screen. As to conditions: at 20,000 nM inhibitor; kinase activity remaining. Type of data set: biochemical.

A short description of data set [8]: Acid dissociation constant (pKa). The format is physicochemical. As to conditions: water with methanol co-solvent, ionic strength 0.15 M KCl, 22±2°C.

T5 sequence (P42336 whole entry E542K): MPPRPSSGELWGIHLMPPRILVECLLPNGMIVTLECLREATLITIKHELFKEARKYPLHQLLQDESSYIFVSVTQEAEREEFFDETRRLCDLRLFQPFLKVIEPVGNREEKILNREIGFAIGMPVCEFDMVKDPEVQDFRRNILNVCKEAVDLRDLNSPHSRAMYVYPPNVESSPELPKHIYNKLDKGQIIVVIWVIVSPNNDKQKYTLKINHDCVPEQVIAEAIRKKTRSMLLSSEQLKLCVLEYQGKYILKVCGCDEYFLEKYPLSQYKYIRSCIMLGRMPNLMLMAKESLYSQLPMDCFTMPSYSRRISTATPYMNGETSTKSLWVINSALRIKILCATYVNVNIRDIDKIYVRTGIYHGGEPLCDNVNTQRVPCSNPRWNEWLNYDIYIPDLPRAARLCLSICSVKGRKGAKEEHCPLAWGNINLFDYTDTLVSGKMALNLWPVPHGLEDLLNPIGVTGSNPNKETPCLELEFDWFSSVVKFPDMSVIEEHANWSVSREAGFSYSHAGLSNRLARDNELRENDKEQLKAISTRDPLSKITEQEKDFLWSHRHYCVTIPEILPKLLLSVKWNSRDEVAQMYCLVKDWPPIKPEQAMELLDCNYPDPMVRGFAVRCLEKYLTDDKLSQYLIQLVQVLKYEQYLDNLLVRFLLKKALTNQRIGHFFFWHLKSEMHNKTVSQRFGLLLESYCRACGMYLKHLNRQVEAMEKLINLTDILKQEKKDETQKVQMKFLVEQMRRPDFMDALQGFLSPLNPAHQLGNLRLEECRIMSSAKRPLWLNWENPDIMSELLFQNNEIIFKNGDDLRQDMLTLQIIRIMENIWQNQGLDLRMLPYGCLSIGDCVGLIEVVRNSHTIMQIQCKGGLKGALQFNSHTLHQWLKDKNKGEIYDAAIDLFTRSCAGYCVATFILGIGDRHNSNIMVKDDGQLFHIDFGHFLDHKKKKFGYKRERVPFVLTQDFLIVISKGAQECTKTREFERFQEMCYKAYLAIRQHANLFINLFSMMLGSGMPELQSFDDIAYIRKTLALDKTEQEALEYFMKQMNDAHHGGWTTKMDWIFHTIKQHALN
T5 sequence (P27986 whole entry partner): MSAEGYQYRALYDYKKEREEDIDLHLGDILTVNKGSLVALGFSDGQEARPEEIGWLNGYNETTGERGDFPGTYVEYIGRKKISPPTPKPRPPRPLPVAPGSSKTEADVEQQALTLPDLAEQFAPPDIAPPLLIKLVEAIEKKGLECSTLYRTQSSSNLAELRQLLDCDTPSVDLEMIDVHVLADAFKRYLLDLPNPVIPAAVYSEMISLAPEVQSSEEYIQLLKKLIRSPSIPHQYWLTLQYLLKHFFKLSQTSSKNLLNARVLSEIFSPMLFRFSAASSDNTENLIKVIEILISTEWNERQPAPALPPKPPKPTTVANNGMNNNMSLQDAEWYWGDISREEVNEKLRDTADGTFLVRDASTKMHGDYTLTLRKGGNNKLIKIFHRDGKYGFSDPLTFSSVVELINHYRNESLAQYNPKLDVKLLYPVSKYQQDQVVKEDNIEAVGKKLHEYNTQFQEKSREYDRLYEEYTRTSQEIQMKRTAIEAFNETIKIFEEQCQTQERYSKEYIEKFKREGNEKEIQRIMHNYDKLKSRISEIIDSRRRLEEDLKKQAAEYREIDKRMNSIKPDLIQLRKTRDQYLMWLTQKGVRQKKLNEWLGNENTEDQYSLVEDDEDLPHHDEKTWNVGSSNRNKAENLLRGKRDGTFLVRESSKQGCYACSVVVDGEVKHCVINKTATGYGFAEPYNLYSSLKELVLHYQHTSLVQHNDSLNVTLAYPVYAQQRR
T6 sequence (Q9Y5S2 whole entry): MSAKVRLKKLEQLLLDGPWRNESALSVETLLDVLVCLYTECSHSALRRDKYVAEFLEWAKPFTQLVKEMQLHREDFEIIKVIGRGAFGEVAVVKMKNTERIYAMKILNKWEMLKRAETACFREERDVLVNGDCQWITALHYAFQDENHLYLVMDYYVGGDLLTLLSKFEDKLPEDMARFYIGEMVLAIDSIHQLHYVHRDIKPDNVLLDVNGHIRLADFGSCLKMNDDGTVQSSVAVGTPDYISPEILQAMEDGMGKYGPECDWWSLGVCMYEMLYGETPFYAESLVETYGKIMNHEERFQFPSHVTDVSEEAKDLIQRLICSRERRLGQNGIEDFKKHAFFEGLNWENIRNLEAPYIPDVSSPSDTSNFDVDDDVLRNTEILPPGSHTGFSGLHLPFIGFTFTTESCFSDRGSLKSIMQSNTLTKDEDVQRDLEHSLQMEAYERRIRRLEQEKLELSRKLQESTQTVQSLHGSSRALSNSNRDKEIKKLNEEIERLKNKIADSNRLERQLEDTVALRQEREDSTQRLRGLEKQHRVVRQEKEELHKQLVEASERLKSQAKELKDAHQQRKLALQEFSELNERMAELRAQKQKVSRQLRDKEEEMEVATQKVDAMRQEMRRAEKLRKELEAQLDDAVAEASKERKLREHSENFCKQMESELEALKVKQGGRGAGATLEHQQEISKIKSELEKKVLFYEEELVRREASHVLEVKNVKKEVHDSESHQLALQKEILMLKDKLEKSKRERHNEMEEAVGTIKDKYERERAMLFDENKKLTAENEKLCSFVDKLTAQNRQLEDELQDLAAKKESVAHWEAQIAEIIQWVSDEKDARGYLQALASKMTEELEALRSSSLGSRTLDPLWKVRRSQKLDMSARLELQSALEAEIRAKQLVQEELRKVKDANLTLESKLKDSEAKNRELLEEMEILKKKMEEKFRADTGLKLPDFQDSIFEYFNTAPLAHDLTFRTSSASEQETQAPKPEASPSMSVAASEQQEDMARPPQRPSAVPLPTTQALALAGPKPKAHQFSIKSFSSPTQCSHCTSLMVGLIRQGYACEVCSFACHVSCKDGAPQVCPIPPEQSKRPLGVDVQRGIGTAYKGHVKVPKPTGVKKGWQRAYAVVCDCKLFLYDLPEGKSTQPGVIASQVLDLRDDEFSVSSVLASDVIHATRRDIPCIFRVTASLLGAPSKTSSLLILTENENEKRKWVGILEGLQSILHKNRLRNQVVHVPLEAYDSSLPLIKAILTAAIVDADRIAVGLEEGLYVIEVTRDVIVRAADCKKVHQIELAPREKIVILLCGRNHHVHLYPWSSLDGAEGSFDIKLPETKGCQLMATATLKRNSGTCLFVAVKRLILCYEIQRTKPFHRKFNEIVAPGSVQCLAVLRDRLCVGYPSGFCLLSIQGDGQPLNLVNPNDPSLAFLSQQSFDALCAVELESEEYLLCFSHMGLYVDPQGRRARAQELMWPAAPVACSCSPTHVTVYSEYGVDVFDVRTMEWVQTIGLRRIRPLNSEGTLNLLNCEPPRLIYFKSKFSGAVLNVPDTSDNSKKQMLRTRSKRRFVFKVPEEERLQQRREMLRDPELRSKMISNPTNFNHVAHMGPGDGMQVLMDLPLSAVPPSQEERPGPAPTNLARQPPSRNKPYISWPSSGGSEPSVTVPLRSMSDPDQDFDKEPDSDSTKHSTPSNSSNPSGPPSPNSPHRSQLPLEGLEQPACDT
Sequence of JNK2α2 (P45984 whole entry): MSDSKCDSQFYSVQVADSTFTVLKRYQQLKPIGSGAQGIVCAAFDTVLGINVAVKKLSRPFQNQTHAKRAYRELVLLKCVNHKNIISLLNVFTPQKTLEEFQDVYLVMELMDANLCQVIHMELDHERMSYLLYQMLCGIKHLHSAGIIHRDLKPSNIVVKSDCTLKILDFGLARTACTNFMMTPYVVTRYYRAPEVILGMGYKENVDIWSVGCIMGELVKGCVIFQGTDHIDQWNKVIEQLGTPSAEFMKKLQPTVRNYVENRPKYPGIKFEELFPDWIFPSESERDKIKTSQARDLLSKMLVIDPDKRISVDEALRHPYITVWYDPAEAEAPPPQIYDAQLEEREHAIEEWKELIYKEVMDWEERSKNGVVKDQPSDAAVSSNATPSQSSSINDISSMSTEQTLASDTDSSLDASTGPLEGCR
T12 sequence (Q15759 whole entry): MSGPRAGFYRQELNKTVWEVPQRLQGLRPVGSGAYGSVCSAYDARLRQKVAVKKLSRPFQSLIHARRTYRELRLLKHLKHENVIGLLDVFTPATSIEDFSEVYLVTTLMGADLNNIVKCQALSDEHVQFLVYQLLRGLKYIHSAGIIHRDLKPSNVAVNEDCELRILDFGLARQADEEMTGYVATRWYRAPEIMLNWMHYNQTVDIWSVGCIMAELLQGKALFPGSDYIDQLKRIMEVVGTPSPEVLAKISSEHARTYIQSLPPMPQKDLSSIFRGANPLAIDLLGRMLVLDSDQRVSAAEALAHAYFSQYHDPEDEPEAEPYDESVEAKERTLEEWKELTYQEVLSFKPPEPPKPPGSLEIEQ
T9 sequence (Q9UQB9 whole entry): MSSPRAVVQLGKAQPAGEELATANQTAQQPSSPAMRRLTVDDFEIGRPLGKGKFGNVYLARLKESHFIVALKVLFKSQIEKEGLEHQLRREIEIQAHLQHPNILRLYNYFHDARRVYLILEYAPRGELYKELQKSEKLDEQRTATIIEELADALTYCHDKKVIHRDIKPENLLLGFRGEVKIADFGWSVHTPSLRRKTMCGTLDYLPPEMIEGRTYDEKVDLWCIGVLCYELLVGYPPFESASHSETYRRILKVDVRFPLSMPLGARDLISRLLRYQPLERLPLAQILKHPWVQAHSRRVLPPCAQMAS
T4 sequence (O15264 whole entry): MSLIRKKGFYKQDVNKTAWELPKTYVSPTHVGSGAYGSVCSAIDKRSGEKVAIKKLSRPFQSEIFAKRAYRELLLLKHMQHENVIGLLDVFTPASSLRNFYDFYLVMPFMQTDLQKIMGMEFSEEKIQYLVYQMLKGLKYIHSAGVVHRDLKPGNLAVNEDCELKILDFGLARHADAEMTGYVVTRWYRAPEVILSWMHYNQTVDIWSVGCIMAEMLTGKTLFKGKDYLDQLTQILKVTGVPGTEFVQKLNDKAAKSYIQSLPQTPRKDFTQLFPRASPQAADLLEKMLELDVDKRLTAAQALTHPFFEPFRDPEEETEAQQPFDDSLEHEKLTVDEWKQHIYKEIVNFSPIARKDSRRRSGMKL
T1 sequence (P42336 whole entry H1047R): as the sequence (P42336 whole entry E542K) above, with K542E, H1047R counted along it
T1 sequence (P27986 whole entry partner): as the sequence (P27986 whole entry partner) above

Regarding `CN(C)c1cc(-c2ccncc2)c(-c2ccc3ccccc3c2)nn1` [MW108, N, N-dimethyl-6-(naphthalen-2-yl)-5-(pyridin-4-yl)pyridazin-3-amine], the activity at 20 µM in data set [1] is 99%; at JNK1α1 it was 96%; at PI3 kinase (p110α/p65α) it was 99%; on PI3 Kinase (p110α/p85α), 98%; at SAPK4 (SAPK=p38MAPK), 93%; in data set [3], 99%. Moreover, the activity at 20 µM on MRCKβ was found to be 99%; in data set [4] it was 98%; at Blk it was 88%; on JNK2α2, 76%; on Aurora-C, 113%; in [6], 99%. In addition, on SAPK3 (SAPK=p38MAPK), the activity at 20 µM came to 87%. For the same compound, the “% Activity” value stood at 99% in [2] and 94% in the data set with MLCK. The “LPS-induced IL-1β production, WT microglia” value in data set [5] is given as “inhibited LPS-induced IL-1β production”. Further, the “phosphorylation of the p38α substrate MK2” value in data set [7] is recorded as “inhibited phosphorylation of the p38α substrate MK2 in a concentration-dependent manner”. The “Functional GPCR Agonist and Antagonist Screen” value with panel of 158 GPCRs was “negative”.

As to `CN(C)c1cc(-c2ccncc2)c(-c2cccc3ccccc23)nn1` [MW181, N,N-dimethyl-6-(naphthalen-1-yl)-5-(pyridin-4-yl)pyridazin-3-amine], the Ki at NLK was found to be 199 nM. In addition, the activity at 20 µM on SAPK2b (SAPK=p38MAPK) stood at 6%; at MRCKβ, 115%; in data set [6], 100%. For the same compound, the pKa in data set [8] (read-out: pKa (UV method), first value) was 4.71 ± 0.03; in data set [8] (read-out: pKa (UV method), second value), 3.19 ± 0.09; in data set [8] (read-out: pKa (potentiometric method), second value), < 3.5.
